Assay results: article PMC5725799, “Comparative binding properties of the tau PET tracers THK5117, THK5351, PBB3, and T807 in postmortem Alzheimer brains” (Alzheimer's Research & Therapy, 2017)

Tested on: tau
Test: ^18F-T807 autoradiography and competition on large frozen AD brain sections
Format: binding, human
Parameters: Total Binding / NSP Binding: unit not given here
Details: vs Unlabelled T807
Protocol: Adjacent sections were used for autoradiography with ^11C-THK5351, ^11C-PBB3, and ^18F-T807. The frozen sections were allowed to reach room temperature, incubated for 30 minutes at room temperature with ^11C-THK5351 (0.4–0.56 nM; specific activity 356–532 GBq/μmol) or ^11C-PBB3 (0.25–0.34 nM; specific activity 442–794 GBq/μmol) or for 55 minutes at room temperature with ^18F-T807 (0.04 nM; specific activity 281 GBq/μmol). We used 10 μM unlabeled THK5351, 10 μM unlabeled PBB3, and 10 μM unlabeled T807 to determine the extent of nonspecific binding for each tracer. The sections were rinsed three times for 5 minutes each with cold binding buffer, followed by a quick dip in cold distilled water. The sections were dried and exposed for 1 h (for ^11C-THK5351 and ^11C-PBB3) or for 3 h (^18 F-T807) on a phosphor imaging plate and then read using the BAS-2500 phosphor imager.
For all the autoradiography studies, the regions of interest were drawn manually on the autoradiogram using multigauge software and were used for the semiquantitative analyses. Photostimulated luminescence per square millimeter (PSL/mm^2) was transformed to picomoles per cubic millimeter using a transformation factor that took into account the resolution of the image, the pixel value for the concentration of ligand, and the thickness of the sections: (PSL/mm^2 value)/([pixel value per pmol] × [(resolution/1000)^2] × [cryosection thickness]/1000).

Compound: [18F]c1ccc(-c2ccc3c(c2)[nH]c2ccncc23)cn1 [^18F-T807, 7-(6-[^18F]fluoropyridin-3yl)-5H-pyrido(4,3-b)indole]
- % of specific binding (AD1, Basal ganglia): 24%
- NSP Binding (AD1, Basal ganglia): 1895
- Specific Binding (AD1, Basal ganglia): 599
- Total Binding (AD1, Basal ganglia): 2495
- % of specific binding (AD1, Frontal cortex): 41%
- NSP Binding (AD1, Frontal cortex): 2028
- Specific Binding (AD1, Frontal cortex): 1388
- Total Binding (AD1, Frontal cortex): 3416
- % of specific binding (AD1, Insula): 33%
- NSP Binding (AD1, Insula): 1851
- Specific Binding (AD1, Insula): 893
- Total Binding (AD1, Insula): 2744
- % of specific binding (AD1, Temporal cortex): 28%
- NSP Binding (AD1, Temporal cortex): 2018
- Specific Binding (AD1, Temporal cortex): 784
- Total Binding (AD1, Temporal cortex): 2802
- % of specific binding (AD2, Basal ganglia): 25%
- NSP Binding (AD2, Basal ganglia): 1713
- Specific Binding (AD2, Basal ganglia): 567
- Total Binding (AD2, Basal ganglia): 2280
- % of specific binding (AD2, Frontal cortex): 24%
- NSP Binding (AD2, Frontal cortex): 1901
- Specific Binding (AD2, Frontal cortex): 586
- Total Binding (AD2, Frontal cortex): 2488
- Total Binding (AD2, Insula): 2469
- % of specific binding (AD2, Temporal cortex): 46%
- NSP Binding (AD2, Temporal cortex): 1801
- Specific Binding (AD2, Temporal cortex): 1526
- Total Binding (AD2, Temporal cortex): 3327
- % of specific binding (AD3, Basal ganglia): 31%
- NSP Binding (AD3, Basal ganglia): 1639
- Specific Binding (AD3, Basal ganglia): 733
- Total Binding (AD3, Basal ganglia): 2372
- % of specific binding (AD3, Frontal cortex): 40%
- NSP Binding (AD3, Frontal cortex): 1916
- Specific Binding (AD3, Frontal cortex): 1296
- Total Binding (AD3, Frontal cortex): 3212
- % of specific binding (AD3, Insula): 22%
- NSP Binding (AD3, Insula): 1836
- Specific Binding (AD3, Insula): 509
- Total Binding (AD3, Insula): 2346
- % of specific binding (AD3, Temporal cortex): 16%
- NSP Binding (AD3, Temporal cortex): 1975
- Specific Binding (AD3, Temporal cortex): 374
- Total Binding (AD3, Temporal cortex): 2349
